Assay results reported in patent publication US10072001B2, “Tank-binding kinase inhibitor compounds” (Gilead Sciences, Inc., priority 2014, dated 2018).

Assays:
TBK1 = TBK1 (Homo sapiens (Human), UniProt Q9UHD2); test: TR-FRET kinase assay, TBK1; conditions: read-out: TBK1-IC50; full length recombinant TBK1 2.5 nM, 2x Km ATP, 1 μM peptide, 240 min at 25° C.; geometric mean of minimum four determinations
Chain of TBK1 (Q9UHD2 whole entry): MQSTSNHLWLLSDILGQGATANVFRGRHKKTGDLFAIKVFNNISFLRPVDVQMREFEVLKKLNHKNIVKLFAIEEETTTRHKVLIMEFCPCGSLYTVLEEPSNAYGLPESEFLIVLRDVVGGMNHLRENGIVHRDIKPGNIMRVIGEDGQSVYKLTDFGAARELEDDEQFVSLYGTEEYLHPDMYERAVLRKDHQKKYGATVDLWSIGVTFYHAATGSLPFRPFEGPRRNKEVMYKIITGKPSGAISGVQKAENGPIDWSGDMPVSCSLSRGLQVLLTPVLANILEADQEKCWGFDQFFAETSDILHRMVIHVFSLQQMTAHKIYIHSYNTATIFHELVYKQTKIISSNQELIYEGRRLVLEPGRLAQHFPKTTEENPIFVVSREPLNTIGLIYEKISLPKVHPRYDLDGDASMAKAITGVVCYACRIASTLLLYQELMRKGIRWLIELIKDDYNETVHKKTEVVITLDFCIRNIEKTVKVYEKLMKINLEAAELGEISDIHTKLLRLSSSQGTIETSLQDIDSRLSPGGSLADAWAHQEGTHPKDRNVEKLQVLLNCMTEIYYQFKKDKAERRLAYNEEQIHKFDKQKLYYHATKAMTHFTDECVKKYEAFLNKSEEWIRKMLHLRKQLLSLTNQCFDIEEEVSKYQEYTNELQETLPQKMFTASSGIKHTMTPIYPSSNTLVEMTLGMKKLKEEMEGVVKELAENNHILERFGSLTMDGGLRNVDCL
Protocol: Enzymatic activity of IKKε and TBK1 was measured using a homogeneous time resolved fluorescence resonance energy transfer (TR-FRET) assay that monitors enzyme dependent phosphorylation of a biotinylated serine/threonine peptide substrate. […] TBK1 and IKKs were expressed and purified as full length recombinant proteins. Detection reagents for the assay were purchased from Cisbio. […] After an assay reaction time of 240 minutes at 25° C., reactions were terminated with EDTA.
Amount of phosphorylated peptide was determined by the addition of 125 nM streptavidin XL665 and europium cryptate labeled anti-phospho monoclonal antibody and the resulting TR-FRET signal was recorded on an Envision plate reader (Ex: 340 nm; Em: 615/665 nm; 100 μs delay and 200 μs read window). […] All IC50 values represent geometric mean values of a minimum of four determinations.

IKKε = IKKε (Homo sapiens (Human), UniProt Q14164); test: TR-FRET kinase assay, IKKε; assay type: biochemical; conditions: full length recombinant IKKε 0.3 nM, 2x Km ATP, 1 μM peptide, 240 min at 25° C.; geometric mean of minimum four determinations
Chain of IKKε (Q14164 whole entry): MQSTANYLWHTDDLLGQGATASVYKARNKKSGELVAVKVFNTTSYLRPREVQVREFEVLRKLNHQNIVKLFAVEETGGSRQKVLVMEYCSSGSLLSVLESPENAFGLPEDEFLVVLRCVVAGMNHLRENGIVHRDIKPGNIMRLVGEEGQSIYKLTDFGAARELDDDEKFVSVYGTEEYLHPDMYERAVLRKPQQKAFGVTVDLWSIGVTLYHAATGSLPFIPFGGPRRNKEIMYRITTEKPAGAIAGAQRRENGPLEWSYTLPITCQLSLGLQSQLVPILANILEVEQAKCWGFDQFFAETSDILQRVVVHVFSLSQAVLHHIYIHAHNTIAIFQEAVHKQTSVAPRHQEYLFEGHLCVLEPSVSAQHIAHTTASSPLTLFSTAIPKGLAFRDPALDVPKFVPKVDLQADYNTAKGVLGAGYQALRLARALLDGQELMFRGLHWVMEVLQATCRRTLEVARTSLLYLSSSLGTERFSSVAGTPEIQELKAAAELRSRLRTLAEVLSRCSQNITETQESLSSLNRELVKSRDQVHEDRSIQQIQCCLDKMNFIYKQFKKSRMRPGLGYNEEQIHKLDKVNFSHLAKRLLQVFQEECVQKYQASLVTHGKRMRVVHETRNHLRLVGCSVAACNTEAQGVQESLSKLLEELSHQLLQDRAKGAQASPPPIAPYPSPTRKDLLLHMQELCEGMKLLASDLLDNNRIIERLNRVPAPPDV
Source text: Biological Assay for TBK1 and IKKs:

Structure (SMILES)	IC50 (TBK1)	IC50 (IKKε)
N#Cc1cc(-c2ccnc3[nH]c(-c4ccc(-n5cccn5)cc4)cc23)ccc1OC1CCOCC1 [Example 177, 5-(2-(4-(1H-pyrazol-1-yl)phenyl)-1H-pyrrolo[2,3-b]pyridin-4-yl)-2-((tetrahydro-2H-pyran-4-yl)oxy)benzonitrile]	33.5 nM	1000 nM
N#Cc1cc(-c2ncnc3[nH]c(-c4ccc(N5CCOCC5)cc4)cc23)ccc1OC1CCN(C(=O)CO)CC1 [Example 220, 2-((1-(2-hydroxyacetyl)piperidin-4-yl)oxy)-5-(6-(4-morpholinophenyl)-7H-pyrrolo[2,3-d]pyrimidin-4-yl)benzonitrile]	0.503 nM	1.48 nM
N#Cc1cccc(-c2ccnc3[nH]c(-c4ccc(N5CCOCC5)cc4)cc23)c1 [Example 79, 3-(2-(4-morpholinophenyl)-1H-pyrrolo[2,3-b]pyridin-4-yl)benzonitrile]	28.2 nM	> 1000 nM
N#Cc1cc(-c2ncnc3[nH]c(-c4ccc(N5CCOCC5)c(F)c4)cc23)ccc1OC1CCN(C(=O)CO)CC1 [Example 158, 5-(6-(3-fluoro-4-morpholinophenyl)-7H-pyrrolo[2,3-d]pyrimidin-4-yl)-2-((1-(2-hydroxyacetyl)piperidin-4-yl)oxy)benzonitrile]	1.02 nM	2.39 nM
N#Cc1cc(-c2ncnc3[nH]c(-c4ccc(N5CCN(CC(F)F)CC5)cc4)cc23)ccc1OC1CCNCC1 [Example 265, 5-(6-(4-(4-(2,2-difluoroethyl)piperazin-1-yl)phenyl)-7H-pyrrolo[2,3-d]pyrimidin-4-yl)-2-(piperidin-4-yloxy)benzonitrile]	16.2 nM	58.7 nM
N#Cc1cc(-c2ccnc3[nH]c(-c4ccc(N5CCOCC5)cc4)nc23)ccc1O[C@@H]1CCN(C(=O)CO)C1 [Example 196, (R)-2-((1-(2-hydroxyacetyl)pyrrolidin-3-yl)oxy)-5-(2-(4-morpholinophenyl)-3H-imidazo[4,5-b]pyridin-7-yl)benzonitrile]	4.5 nM	12.7 nM
COc1cc(-c2cc3c(-c4ccc(OC5CCOCC5)c(C#N)c4)c(F)cnc3[nH]2)ccc1N1CCOCC1 [Example 172, 5-(5-fluoro-2-(3-methoxy-4-morpholinophenyl)-1H-pyrrolo[2,3-b]pyridin-4-yl)-2-((tetrahydro-2H-pyran-4-yl)oxy)benzonitrile]	30.2 nM	260 nM
C=C(C)c1ccc(-c2cc3c(-c4ccc(O[C@@H]5CCN(C(=O)CO)C5)c(C#N)c4)ccnc3[nH]2)cc1 [Example 150, (R)-2-((1-(2-hydroxyacetyl)pyrrolidin-3-yl)oxy)-5-(2-(4-(prop-1-en-2-yl)phenyl)-1H-pyrrolo[2,3-b]pyridin-4-yl)benzonitrile]	11.2 nM	18.4 nM
N#Cc1cc(-c2ncnc3[nH]c(-c4ccc(N5CCOCC5)cc4)nc23)ccc1OC1CCN(C=O)CC1 [Example 250, 2-((1-formylpiperidin-4-yl)oxy)-5-(8-(4-morpholinophenyl)-9H-purin-6-yl)benzonitrile]	2.25 nM	9.86 nM
CS(=O)(=O)N1CCC(Oc2ccc(-c3ncnc4[nH]c(-c5ccc(N6CCOCC6)cc5)nc34)cc2C#N)CC1 [Example 253, 2-((1-(methylsulfonyl)piperidin-4-yl)oxy)-5-(8-(4-morpholinophenyl)-9H-purin-6-yl)benzonitrile]	19.8 nM	39.8 nM
N#Cc1cc(-c2ccnc3[nH]c(-c4ccc(N5CCOCC5)cc4)cc23)ccc1O[C@H]1CCN(C(=O)CO)C1 [Example 23, (S)-2-((1-(2-hydroxyacetyl)pyrrolidin-3-yl)oxy)-5-(2-(4-morpholinophenyl)-1H-pyrrolo[2,3-b]pyridin-4-yl)benzonitrile]	16.2 nM	64.9 nM
COC(C)(C)c1ccc(-c2cc3c(-c4cc(C#N)c(OC5CCOCC5)cn4)ccnc3[nH]2)cc1 [Example 169, 2-(2-(4-(2-Methoxypropan-2-yl)phenyl)-1H-pyrrolo[2,3-b]pyridin-4-yl)-5-((tetrahydro-2H-pyran-4-yl)oxy)isonicotinonitrile]	4.8 nM	13.2 nM
N#Cc1cc(-c2ccnc3[nH]c(-c4cc5ccccc5[nH]4)cc23)ccc1OC1CCOCC1 [Example 38]	32.5 nM	76.8 nM
N#Cc1cc(-c2ccnc3[nH]c(-c4ccc(N5CCOCC5)cc4)cc23)ccc1OC1CCNCC1 [Example 18, 5-(2-(4-morpholinophenyl)-1H-pyrrolo[2,3-b]pyridin-4-yl)-2-(piperidin-4-yloxy)benzonitrile]	17.1 nM	33.2 nM
N#Cc1cc(-c2ncnc3[nH]c(-c4cnc5c(c4)NCCO5)cc23)ccc1OC1CCOCC1 [Example 189, 5-(6-(2,3-dihydro-1H-pyrido[2,3-b][1,4]oxazin-7-yl)-7H-pyrrolo[2,3-d]pyrimidin-4-yl)-2-((tetrahydro-2H-pyran-4-yl)oxy)benzonitrile]	4.36 nM	7.99 nM
COc1ccc(-c2nc3c(-c4ccc(OC5CCOCC5)c(C#N)c4)ncnc3[nH]2)cc1 [Example 146, 5-(8-(4-methoxyphenyl)-9H-purin-6-yl)-2-((tetrahydro-2H-pyran-4-yl)oxy)benzonitrile]	4.71 nM	23.4 nM
CN1CCN(C(=O)c2ccc(-c3cc4c(-c5ccc(OC6CCOCC6)c(C#N)c5)ncnc4[nH]3)cc2)CC1 [Example 187, 5-(6-(4-(4-methylpiperazine-1-carbonyl)phenyl)-7H-pyrrolo[2,3-d]pyrimidin-4-yl)-2-((tetrahydro-2H-pyran-4-yl)oxy)benzonitrile]	1.16 nM	1.88 nM
CN1CCN(c2ccc(-c3nc4c(-c5ccc(OC6CCN(C=O)CC6)c(C#N)c5)ncnc4[nH]3)cc2)CC1 [Example 254, 2-((1-formylpiperidin-4-yl)oxy)-5-(8-(4-(4-methylpiperazin-1-yl)phenyl)-9H-purin-6-yl)benzonitrile]	4.22 nM	2.69 nM
N#Cc1cc(-c2ncnc3[nH]c(-c4ccc(OCCN5CCCC5)cc4)cc23)ccc1N1CC(O)C1 [Example 227, 2-(3-hydroxyazetidin-1-yl)-5-(6-(4-(2-(pyrrolidin-1-yl)ethoxy)phenyl)-7H-pyrrolo[2,3-d]pyrimidin-4-yl)benzonitrile]	42.4 nM	70.2 nM
N#Cc1cc(-c2ncnc3[nH]c(-c4ccc(N5CCOCC5)cc4)cc23)ccc1OCC1CC1 [Example 102, 2-(cyclopropylmethoxy)-5-(6-(4-morpholinophenyl)-7H-pyrrolo[2,3-d]pyrimidin-4-yl)benzonitrile]	> 1000 nM	> 1000 nM
Cn1cc(-c2nc3c(-c4ccc(OC5CCOCC5)c(C#N)c4)ccnc3[nH]2)cn1 [Example 307, 5-(2-(1-methyl-1H-pyrazol-4-yl)-3H-imidazo[4,5-b]pyridin-7-yl)-2-((tetrahydro-2H-pyran-4-yl)oxy)benzonitrile]	44.2 nM	21.3 nM
N#Cc1cc(-c2ncnc3[nH]c(-c4ccc(N5CCNCC5)cc4)cc23)ccc1OC1CCOCC1 [Example 200, 5-(6-(4-(piperazin-1-yl)phenyl)-7H-pyrrolo[2,3-d]pyrimidin-4-yl)-2-((tetrahydro-2H-pyran-4-yl)oxy)benzonitrile]	0.644 nM	1.03 nM
CN1CCN(c2ccc(-c3nc4c(-c5ccc(OC6CCNCC6)c(C#N)c5)ncnc4[nH]3)cc2)CC1 [Example 247, 5-(8-(4-(4-methylpiperazin-1-yl)phenyl)-9H-purin-6-yl)-2-(piperidin-4-yloxy)benzonitrile]	11.3 nM	16.8 nM
